System: KM12-luc cells
Assay: Cell proliferation and growth inhibition assay (CCK-8) in KM12-luc
Format: cell-based
Conditions: KM12-Luc, 72 h, KM12-luc cells, treated with test compounds for 72 hrs, CCK-8 viability; read-out: NTRK IC50 in KM12-luc
Procedure: MV-4-11 and H1975 cells were obtained from the American Type Culture Collection and KM12-luc cells were obtained from JCRB Cell Bank. All cell lines were maintained at 37° C. with 5% C02, in media supplemented with 10% fetal bovine serum and penicillin (100 units/mL) and streptomycin (100 μg/mL). MV-4-11 cells were maintained in Iscove's Modified Dubecco's Medium, H1975 cells were cultured with RPMI 1640 media, and KM12-luc cells were maintained in Dulbecco's Modification of Eagle's Medium. CCK-8 reagent was obtained from Yeasen. Cell proliferation was assessed by CCK-8 assay (Yeasen) per the manufacturer's instructions. […] Cell viability was assayed by incubating the cells with CCK-8 reagent for 1-4 hrs. Absorbance was measured at OD450 using the Beckman DTX880. The data was calculated using GraphPad Prism version 6.01. The IC50 values were fitted using a non-linear regression model with a sigmoidal dose response.

Compound | IC50 [nM]
CC(=O)Nc1cccc(Oc2nc(Nc3ccc(N(C)CCN(C)C)c(F)c3)nc3[nH]ccc23)c1 [Compound 181a, N-(3-((2-((4-((2-(dimethylamino)ethyl)(methyl)amino)-3-fluorophenyl)amino)-7H-pyrrolo[2,3-d]pyrimidin-4-yl)oxy)phenyl)acetamide] | > 10000
CCC(=O)Nc1cccc(Nc2ncc(Cl)c(Nc3ccc(N4CCN(C(C)=O)CC4)cc3OC)n2)c1 [Compound 162, N-(3-((4-((4-(4-acetylpiperazin-1-yl)-2-methoxyphenyl)amino)-5-chloropyrimidin-2-yl)amino)phenyl)propionamide] | 129
CC(=O)Nc1cc(Nc2ncc(Cl)c(-c3cn(C)c4c(F)cccc34)n2)ccc1N1CC[C@H](N(C)C)C1 [Compound S-415, (S)—N-(5-((5-chloro-4-(7-fluoro-1-methyl-1H-indol-3-yl)pyrimidin-2-yl)amino)-2-(3-(dimethylamino)pyrrolidin-1-yl)phenyl)acetamide] | 155
COc1cccc2c(-c3nc(Nc4ccc(N(C)CCN(C)C)c(N)c4)ncc3Cl)cn(C)c12 [Compound 437, N^4-(5-chloro-4-(7-methoxy-1-methyl-H-indol-3-yl)pyrimidin-2-yl)-N^1-(2-(dimethylamino)ethyl)-N^1-methylbenzene-1,2,4-triamine] | 109
CCN(CCN(C)C)c1cc(F)c(Nc2nc(-c3cn(C)c4cccc(F)c34)c3cc[nH]c3n2)cc1NC(C)=O [Compound 222, N-(2-((2-(dimethylamino)ethyl)(ethyl)amino)-4-fluoro-5-((4-(4-fluoro-1-methyl-1H-indol-3-yl)-7H-pyrrolo[2,3-d]pyrimidin-2-yl)amino)phenyl)acetamide] | 1440
CCN(CCN(C)C)c1ccc(Nc2nc(-c3cn(C)c4ccccc34)c3occc3n2)cc1NC(C)=O [Compound 256c, N-(2-((2-(dimethylamino)ethyl)(ethyl)amino)-5-((4-(1-methyl-1H-indol-3-yl)furo[3,2-d]pyrimidin-2-yl)amino)phenyl)acetamide] | 587
CC(=O)Nc1cc(Nc2ncc(Cl)c(-c3cn(C)c4ccccc34)n2)cc(F)c1N(C)CCN(C)C [Compound 396, N-(5-((5-chloro-4-(1-methyl-1H-indol-3-yl)pyrimidin-2-yl)amino)-2-((2-(dimethylamino)ethyl)(methyl)amino)-3-fluorophenyl)acetamide] | 80.3
CC(=O)Nc1cc(Nc2ncc(C(F)(F)F)c(-c3cn(C)c4c(C)cccc34)n2)ccc1N(CCN(C)C)C(C)=O [Compound 370, N-(2-acetamido-4-((4-(1,7-dimethyl-1H-indol-3-yl)-5-(trifluoromethyl)pyrimidin-2-yl)amino)phenyl)-N-(2-(dimethylamino)ethyl)acetamide] | 77.1
CC(=O)Nc1cc(Nc2ncc(C(F)(F)F)c(-c3cn(C)c4ccccc34)n2)cc(F)c1N(C)CCN(C)C [Compound 308, N-(2-((2-(dimethylamino)ethyl)(methyl)amino)-3-fluoro-5-((4-(1-methyl-1H-indol-3-yl)-5-(trifluoromethyl)pyrimidin-2-yl)amino)phenyl)acetamide] | 139
CC(=O)Nc1cc(Nc2nc3c(c(-c4cn(C)c5ccccc45)n2)COCC3)cc(F)c1N(C)CCN(C)C [Compound 257b, N-(2-((2-(dimethylamino)ethyl)(methyl)amino)-3-fluoro-5-((4-(1-methyl-1H-indol-3-yl)-7,8-dihydro-5H-pyrano[4,3-d]pyrimidin-2-yl)amino)phenyl)acetamide] | > 10000
CCC(=O)Nc1cccc(Nc2ncc(F)c(Nc3ccc(N4CCN(C(C)=O)CC4)c(F)c3)n2)c1 [Compound 158, N-(3-((4-((4-(4-acetylpiperazin-1-yl)-3-fluorophenyl)amino)-5-fluoropyrimidin-2-yl)amino)phenyl)propionamide] | > 1000
CN(C)CCN(C)c1ccc(Nc2nc(-c3cn(C)c4ccccc34)c3cc[nH]c3n2)cc1NCC(F)(F)F [Compound 194, N^1-(2-(dimethylamino)ethyl)-N^1-methyl-N^4-(4-(1-methyl-1H-indol-3-yl)-7H-pyrrolo[2,3-d]pyrimidin-2-yl)-N^2-(2,2,2-trifluoroethyl)benzene-1,2,4-triamine] | 722
COc1cnc(Nc2ccc(OCCN(C)C)c(NC(C)=O)c2)nc1-c1cn(C)c2c(C)cccc12 [Compound 285, N-(5-((4-(1,7-dimethyl-1H-indol-3-yl)-5-methoxypyrimidin-2-yl)amino)-2-(2-(dimethylamino)ethoxy)phenyl)acetamide] | 99.6
CC(=O)Nc1cc(Nc2nc(-c3c[nH]c4cc(F)ccc34)ncc2C(F)(F)F)ccc1N(C)CCN(C)C [Compound 328b, N-(2-((2-(dimethylamino)ethyl)(methyl)amino)-5-((2-(6-fluoro-1H-indol-3-yl)-5-(trifluoromethyl)pyrimidin-4-yl)amino)phenyl)acetamide] | 2420
COc1cccc2c(-c3ncc(C(F)(F)F)c(Nc4ccc(N5CC[C@H](N(C)C)C5)c(NC(C)=O)c4)n3)c[nH]c12 [Compound S-382b, (S)—N-(2-(3-(dimethylamino)pyrrolidin-1-yl)-5-((2-(7-methoxy-1H-indol-3-yl)-5-(trifluoromethyl)pyrimidin-4-yl)amino)phenyl)acetamide] | 349
CN(C)CCN(C)c1ccc(Nc2nc(-c3cn(C)c4ccccc34)c3cc[nH]c3n2)cc1S(C)(=O)=O [Compound 206, N^1-(2-(dimethylamino)ethyl)-N^1-methyl-N^4-(4-(1-methyl-1H-indol-3-yl)-7H-pyrrolo[2,3-d]pyrimidin-2-yl)-2-(methylsulfonyl)benzene-1,4-diamine] | 176
CN(C)CCN(C)c1ccc(Nc2nc(-c3cn(C)c4ccccc34)c3cc[nH]c3n2)cc1N(C)C [Compound 207, N^1-(2-(dimethylamino)ethyl)-N^1,N^2,N^2-trimethyl-N^4-(4-(1-methyl-1H-indol-3-yl)-7H-pyrrolo[2,3-d]pyrimidin-2-yl)benzene-1,2,4-triamine] | 348
CC(=O)Nc1cc(Nc2ncc(C(F)(F)F)c(-c3c[nH]c4ccccc34)n2)cc(F)c1N(C)CCN(C)C [Compound 299a, N-(5-((4-(1H-indol-3-yl)-5-(trifluoromethyl)pyrimidin-2-yl)amino)-2-((2-(dimethylamino)ethyl)(methyl)amino)-3-fluorophenyl)acetamide] | 48.1
CCN(CCN(C)C)c1ccc(Nc2ncc(C(F)(F)F)c(-c3c[nH]c4ccc(F)cc34)n2)cc1NC(C)=O [Compound 323, N-(2-((2-(dimethylamino)ethyl)(ethyl)amino)-5-((4-(5-fluoro-1H-indol-3-yl)-5-(trifluoromethyl)pyrimidin-2-yl)amino)phenyl)acetamide] | 18.9
COc1c(N)nc(Nc2ccc(N(C)CCN(C)C)c(N)c2)nc1-c1cn(C)c2ccccc12 [Compound 294, N^4-(4-amino-5-methoxy-6-(1-methyl-1H-indol-3-yl)pyrimidin-2-yl)-N^1-(2-(dimethylamino)ethyl)-N^1-methylbenzene-1,2,4-triamine] | 167
COCCCN(C)c1cc(N2CCN(C)CC2)ccc1C(=O)Nc1c[nH]c2ccc(Cc3cc(F)cc(F)c3)cc12 [Compound 508, N-(5-(3,5-difluorobenzyl)-1H-indol-3-yl)-2-((3-methoxypropyl)(methyl)amino)-4-(4-methylpiperazin-1-yl)benzamide] | > 1000
COCCCN(C)c1cc(N2CCN(C)CC2)ccc1C(=O)Nc1c[nH]c2cnc(Nc3cc(F)cc(F)c3)nc12 [Compound 494, N-(2-((3,5-difluorophenyl)amino)-5H-pyrrolo[3,2-d]pyrimidin-7-yl)-2-((3-methoxypropyl)(methyl)amino)-4-(4-methylpiperazin-1-yl)benzamide] | > 1000
CN(C)CCN(C)c1ccc(C(=O)Nc2c[nH]c3ccc(Nc4cc(F)cc(F)c4)cc23)c(NC2CCOCC2)c1 [Compound 500, N-(5-((3,5-difluorophenyl)amino)-1H-indol-3-yl)-4-((2-(dimethylamino)ethyl)(methyl)amino)-2-((tetrahydro-2H-pyran-4-yl)amino)benzamide] | 3570

Same assay, conditions: KM12-Luc, 72 h, read-out: NTRK IC50 in KM12-luc

Compound | IC50 [nM]
CCN(CCN(C)C)c1ccc(Nc2nc(-c3cn(C)c4ccccc34)c3cc[nH]c3n2)cc1NC(C)=O [Compound 212c, N-(2-((2-(dimethylamino)ethyl)(ethyl)amino)-5-((4-(1-methyl-1H-indol-3-yl)-7H-pyrrolo[2,3-d]pyrimidin-2-yl)amino)phenyl)acetamide] | 43.2
CCNc1cc(Nc2nc(-c3cn(C)c4ccc(F)cc34)c3cc[nH]c3n2)ccc1N(C)CCN(C)C [Compound 227b, N^1-(2-(dimethylamino)ethyl)-N^2-ethyl-N^4-(4-(5-fluoro-1-methyl-1H-indol-3-yl)-7H-pyrrolo[2,3-d]pyrimidin-2-yl)-N^1-methylbenzene-1,2,4-triamine] | 672
CCNc1cc(Nc2nc(-c3cn(C)c4ccccc34)c3cc[nH]c3n2)ccc1N(C)CCN(C)C [Compound 205b, N^1-(2-(dimethylamino)ethyl)-N^2-ethyl-N1-methyl-N^4-(4-(1-methyl-1H-indol-3-yl)-7H-pyrrolo[2,3-d]pyrimidin-2-yl)benzene-1,2,4-triamine] | 304

Same assay, conditions: KM12-luc cells, treated with test compounds for 72 hrs, CCK-8 viability; read-out: NTRK IC50 in KM12-luc

Compound | IC50 [nM]
CC(=O)Nc1cc(Nc2ncc(Cl)c(-c3cn(C)c4c(C)cccc34)n2)ccc1N1CC[C@H](N(C)C)C1 [Compound S-432, (S)—N-(5-((5-chloro-4-(1,7-dimethyl-1H-indol-3-yl)pyrimidin-2-yl)amino)-2-(3-(dimethylamino)pyrrolidin-1-yl)phenyl)acetamide] | 22.4

Reference: patent US20250136576A1, “Heterocyclic Compounds and Uses Thereof” (ACEA Therapeutics, Inc., priority 2021, published 2025)
